Marks after values point to notes of the source that are not given here.
Key:
[1] = tested on: pSTAT5 in BaF3 (JAK2 WT) cells; experiment: Cell pSTAT5 AlphaScreen SureFire assay; format: cell-based; details: Mus musculus, 1 hour, EPO-stimulated
Procedure: (§1) Measurement of pSTAT5 in cells was performed essentially as described previously using an AlphaScreen™ SureFire™ (Perkin Elmer) assay. BaF3 (JAK2 WT), BaF3 (JAK2 V617F), and CTLL-2 cells were exposed to compound for 60 min prior to lysis and subsequent detection of pSTAT5 via AlphaScreen technology. Prior to compound treatment, BaF3 (JAK2 WT) and CTLL-2 cells were cytokine starved overnight, with EPO or IL-2 added 15 minutes prior to lysis, respectively.

[2] = tested on: pSTAT5 in CTLL-2 cells (JAK1 and JAK3 dependent); experiment: Cell pSTAT5 AlphaScreen SureFire assay; format: cell-based
Procedure: as §1

[3] = tested on: pSTAT5 in BaF3 (JAK2 V617F) cells; experiment: Cell pSTAT5 AlphaScreen SureFire assay; format: cell-based; details: Mus musculus, 1 hour
Procedure: as §1

JAK2 (JH1–JH2) V617F = target: T1, JAK2 (JH1–JH2) V617F (Homo sapiens, UniProt O60674, V617F); experiment: JAK2 enzyme assay, HTRF detection; format: biochemical; details: kinase activity, mean, n = 3, read-out: IC50, cell-free JAK2 (JH1–JH2) V617F
T1 construct: JAK2, 25 pM enzyme (JH1, JH1–JH2^wt, JH1–JH2^V617F domains)
T1 sequence (O60674 532-1132 V617F limits assumed): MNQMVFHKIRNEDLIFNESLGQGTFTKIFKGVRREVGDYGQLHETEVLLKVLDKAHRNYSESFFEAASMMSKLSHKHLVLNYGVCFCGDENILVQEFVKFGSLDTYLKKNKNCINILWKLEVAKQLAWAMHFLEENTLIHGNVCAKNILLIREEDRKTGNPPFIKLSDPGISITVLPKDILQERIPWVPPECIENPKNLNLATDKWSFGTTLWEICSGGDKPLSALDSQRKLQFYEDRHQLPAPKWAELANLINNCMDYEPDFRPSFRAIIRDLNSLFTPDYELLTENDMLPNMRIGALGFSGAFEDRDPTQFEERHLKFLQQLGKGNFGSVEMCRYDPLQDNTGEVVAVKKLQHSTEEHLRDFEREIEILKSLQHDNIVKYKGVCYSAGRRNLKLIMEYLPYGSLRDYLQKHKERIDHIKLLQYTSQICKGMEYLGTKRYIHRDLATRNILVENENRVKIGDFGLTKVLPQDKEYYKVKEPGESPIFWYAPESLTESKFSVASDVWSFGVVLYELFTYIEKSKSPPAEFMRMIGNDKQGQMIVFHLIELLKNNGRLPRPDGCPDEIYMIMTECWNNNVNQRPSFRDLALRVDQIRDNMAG
Procedure: (§2) JAK1, JAK2, JAK3, and TYK2 kinase activity assays were performed as described previously using HTRF detection technology and the peptide substrate amino hexanoyl biotin-EQEDEPEGDYFEWLE-NH2. Each reaction was incubated between 60 and 80 min at room temperature. Final conditions were as follows: JAK1, 400 pM enzyme, Hepes pH 7.5, 10 mM MgCl2, 0.01% Brij-35, 1 mM EGTA, 0.1 mg/ml BSA), 2 mM DTT, 2 µM peptide substrate, 25 µM MgATP, 5% DMSO and the desired concentration of subject compound; JAK2, 25 pM enzyme (JH1, JH1–JH2^wt, JH1–JH2^V617F domains), 2 µM peptide substrate, 15 µM MgATP, 5 mM MgCl2, 100 mM NaCl, 2 mM DTT, 0.1 mg/ml BSA, 50 mM Tris (pH 7.4), 5% DMSO and the desired concentration of subject compound; JAK3, 250 pM enzyme, 50 mM Hepes pH 7.5, 10 mM MgCl2, 0.01% Brij-35, 1 mM EGTA, 0.1 mg/ml BSA), 2 mM DTT, 2.0 µM peptide substrate, 25 µM MgATP, 5% DMSO, and the desired concentration of subject compound; TYK2, 125 pM enzyme, 50 mM Hepes pH 7.5, 10 mM MgCl2, 0.01% Brij-35, 1 mM EGTA, 0.1 mg/ml BSA, 2 mM DTT, 2.0 µM peptide substrate, 15 µM MgATP, 5% DMSO and the desired concentration of subject compound.

JAK2 (JH1) WT = target: T2, JAK2 (JH1) WT (Homo sapiens, UniProt O60674); experiment: JAK2 enzyme assay, HTRF detection; format: biochemical
T2 construct: JAK2, 25 pM enzyme (JH1, JH1–JH2^wt, JH1–JH2^V617F domains)
T2 sequence (O60674 849-1124 limits assumed): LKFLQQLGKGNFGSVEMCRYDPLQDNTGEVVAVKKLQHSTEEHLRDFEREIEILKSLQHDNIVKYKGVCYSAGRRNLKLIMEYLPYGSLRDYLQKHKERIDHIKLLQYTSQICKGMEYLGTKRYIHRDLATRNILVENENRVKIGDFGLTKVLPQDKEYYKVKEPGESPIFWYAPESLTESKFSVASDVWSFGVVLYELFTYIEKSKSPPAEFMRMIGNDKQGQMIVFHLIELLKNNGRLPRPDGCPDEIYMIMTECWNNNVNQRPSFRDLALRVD
Procedure: as §2

JAK2 (JH1–JH2) WT = target: T3, JAK2 (JH1–JH2) WT (Homo sapiens, UniProt O60674); experiment: JAK2 enzyme assay, HTRF detection; format: biochemical; details: kinase activity, mean, n = 3, read-out: IC50, cell-free JAK2 (JH1–JH2) WT
T3 construct: JAK2, 25 pM enzyme (JH1, JH1–JH2^wt, JH1–JH2^V617F domains)
T3 sequence (O60674 532-1132 limits assumed): as the sequence (O60674 532-1132 V617F limits assumed) above, with F86V counted along it
Procedure: as §2

[4] = tested on: bone marrow cell populations; experiment: Cell populations in bone marrow of normal mice; format: in vivo; details: 54 mpk
Procedure: Cells were stained in PBS, 0.5% BSA with antibodies for 15 min on ice. Stained cells were acquired on a 4-laser LSR-II (BD Biosciences) and data analyzed using FlowJo software (Treestar). Dead cells were labeled with the blue fluorescent LIVE/DEAD reactive dye (Invitrogen) and excluded from the analysis.
Monoclonal antibodies (anti-mouse): CD3, CD4, CD5, CD8, CD11b, CD19, CD21/35, CD23, CD25, CD43, CD44, CD49b, CD69, CD71, CD93, CD117, B220, GR-1, IgD, NK1.1, NKG2A/C/E, NKG2D, Ter119 were purchased from BD Biosciences; CD4, CD8, CD49b, CD62L, TCRβ, TCRγδ from eBioscience; GR-1 from Invitrogen; CD43 from Miltenyi Biotec. Goat anti-mouse IgM-FITC, (μ chain specific) from Jackson Immuno Research.
JAK2 and its family members JAK1 and JAK3 are known to signal downstream of cytokines that play essential roles in the development of lymphoid cell populations. To examine more thoroughly the effects of JAK2 inhibition on lymphoid cells, we analyzed wild-type (C57BL/6) mice treated with 54 mpk MRLB-11055 for 3 days, 6 days or up to 5 cycles of 3 days (“on”) followed by a 4 day holiday (“off”).
Supplementary file pone.0037207.s006.doc: Table S4 Effect of MRLB-11055 on Cell Populations in Bone Marrow of Normal Mice. Cell counts measured by Advia. Cycles refer to 3 days of treatment followed by a 4 day holiday. *p<0.05 in Student T test when comparing vehicle 5 cycle with treatment 5 cycle and vehicle 2 cycle with treatment 2 cycle, resp. (DOC) Click here for additional data file.

220 recombinant kinases = experiment: Kinase profiling (Millipore), whole panel; format: biochemical; details: 198 of 220 tested kinases; based on JAK2 (JH1-JH2) IC50
Procedure: Kinase profiling was conducted by Millipore (Billerica, MA).

[5] = 2 cycles (3 days treatment, 4 day holiday)
[6] = 5 cycles (3 days treatment, 4 day holiday)

Compound: NC(=O)c1cnc(N[C@H](C2CC2)C(F)(F)F)c2c1[nH]c1cc(-c3cnc(N)nc3)ccc12 [MRLB-11055]
- IC50 [1]: 23 nM
- Times less potent on IL-2 stimulated CTLL-2 pSTAT5 than on JAK2V617F-mediated pSTAT5 in BaF3 cells [2]: 6 times
- IC50 ([2]; Mus musculus, CTLL-2, 1 hour, IL2-stimulated, JAK1 and JAK3 dependent): 66 nM
- IC50 [3]: 11 nM
- IC50 (JAK2 (JH1–JH2) V617F): 0.35 nM
- Manner of inhibition of the JH1 kinase domain (JAK2 (JH1) WT; data not shown): ATP-competitive
- IC50 (JAK2 (JH1) WT; kinase activity, HTRF assay, mean, n = 3, read-out: IC50, cell-free JAK2 (JH1) WT): 0.08 nM
- IC50 (JAK2 (JH1–JH2) WT): 0.78 nM
- B-Cells (CD19+B220+) Immature AA4.1+ IgM+ [4, 5]: 0.70 ± 0.04* x 10^6
- B-Cells (CD19+B220+) Mature AA4.1- IgM+ [4, 5]: 0.54 ± 0.12 x 10^6
- B-Cells (CD19+B220+) Pro/pre AA4.1+ IgM- [4, 5]: 2.78 ± 0.92 x 10^6
- B-Cells (CD19+B220+) Total [4, 5]: 4.05 ± 0.94* x 10^6
- Erythroid Progenitors [4, 5]: 8.3 ± 0.9 x 10^6
- Mature Erythrocytes [4, 5]: 13.5 ± 0.7 x 10^6
- Myeloid GR-1+ CD11b+ [4, 5]: 8.33 ± 0.85* x 10^6
- Nucleated Cells [4, 5]: 25.0 ± 4.0 x 10^6
- B-Cells (CD19+B220+) Immature AA4.1+ IgM+ [4, 6]: 0.15 ± 0.05* x 10^6
- B-Cells (CD19+B220+) Mature AA4.1- IgM+ [4, 6]: 0.38 ± 0.17* x 10^6
- B-Cells (CD19+B220+) Pro/pre AA4.1+ IgM- [4, 6]: 1.22 ± 0.74 x 10^6
- B-Cells (CD19+B220+) Total [4, 6]: 1.76 ± 0.87* x 10^6
- Erythroid Progenitors [4, 6]: 5.9 ± 1.9 x 10^6
- Mature Erythrocytes [4, 6]: 10.3 ± 3.2 x 10^6
- Myeloid GR-1+ CD11b+ [4, 6]: 7.83 ± 3.46 x 10^6
- Nucleated Cells [4, 6]: 19.6 ± 7.2 x 10^6
- B-Cells (CD19+B220+) Immature AA4.1+ IgM+ ([4]; 3 days): 0.22 ± 0.09* x 10^6
- B-Cells (CD19+B220+) Mature AA4.1- IgM+ ([4]; 3 days): 0.32 ± 0.17* x 10^6
- B-Cells (CD19+B220+) Pro/pre AA4.1+ IgM- ([4]; 3 days): 0.24 ± 0.10* x 10^6
- B-Cells (CD19+B220+) Total ([4]; 3 days): 0.78 ± 0.35* x 10^6
- Erythroid Progenitors ([4]; 3 days): 0.5 ± 0.3* x 10^6
- Mature Erythrocytes ([4]; 3 days): 25.0 ± 5.5* x 10^6
- Myeloid GR-1+ CD11b+ ([4]; 3 days): 2.07 ± 0.55* x 10^6
- Nucleated Cells ([4]; 3 days): 4.7 ± 1.6* x 10^6
- B-Cells (CD19+B220+) Immature AA4.1+ IgM+ ([4]; 6 days): 0.11 ± 0.03* x 10^6
- B-Cells (CD19+B220+) Mature AA4.1- IgM+ ([4]; 6 days): 0.59 ± 0.52 x 10^6
- B-Cells (CD19+B220+) Pro/pre AA4.1+ IgM- ([4]; 6 days): 0.08 ± 0.03* x 10^6
- B-Cells (CD19+B220+) Total ([4]; 6 days): 0.79 ± 0.54* x 10^6
- Erythroid Progenitors ([4]; 6 days): 1.4 ± 0.8* x 10^6
- Mature Erythrocytes ([4]; 6 days): 18.7 ± 2.5* x 10^6
- Myeloid GR-1+ CD11b+ ([4]; 6 days): 1.90 ± 0.68* x 10^6
- Nucleated Cells ([4]; 6 days): 5.4 ± 2.2* x 10^6
- Fold selectivity over JAK2 for 198/220 kinases (220 recombinant kinases): >25-fold over JAK2

Source: article PMC3356383, “Efficacious Intermittent Dosing of a Novel JAK2 Inhibitor in Mouse Models of Polycythemia Vera” (PLoS ONE, 2012)
